Results on 2 compounds are retold here after patent publication US12558369B2, “Compositions and methods of treating Fanconi Anemia” (Dana-Farber Cancer Institute, Inc., priority 2015, dated 2026).

Entries after “also recorded” stand apart in the source; their conditions may differ.

Data set [1] concerns EUFA316 (FA-G fibroblasts). Nature of the data set: MMC sensitivity survival assay of FA cells with TGFβ pathway inhibitors. It is filed as cell-based, human. The protocol:
(§1) FIG. 1. TGFβ pathway disruption enhances FA cellular growth. • A) RIGER P value analysis to identify top candidate genes. • B) Clonogenic survival of GM6914 (FA-A fibroblasts) and FANCA-corrected GM6914 cells after shRNA mediated knockdown of SMAD3. Cells were treated with increasing doses of MMC and plated for 10-12 days. The average of two experiments is presented; error bars represent s.e.m.
(§2) For survival assays, cells were seeded at a density of 1×10^3 cells per well in 96-well plates. After 72 hours of culture in indicated concentrations of MMC or post exposure of acetaldehyde, viability was assessed using CellTiterGlo reagent (Promega). In order to assess clonogenicity, cells were seeded at a low density (500-1000 cells per well) in 6-well plates and allowed to form colonies. The cells were then fixed in methanol/20% acetic acid and stained with 1% crystal violet. Colony formation was assessed by solubilizing crystal violet stain with methanol and quantifying UV absorbance for each condition.
For survival assays, cells were seeded at a density of 1×10^3 cells per well in 96-well plates. After 3-6 days of culture in indicated concentrations of MMC or post exposure of acetaldehyde, viability was assessed using CellTiterGlo reagent (Promega). In order to assess clonogenicity, cells were seeded at a low density (500-1000 cells per well) in 6-well plates and allowed to form colonies. The cells were then fixed in methanol/20% acetic acid and stained with 1% crystal violet. Colonies were counted after crystal violet staining.

The test system of the next data set is EUFA316. Nature of the data set: Acetaldehyde sensitivity survival assay. It is filed as cell-based, human. The following applies: EUFA316 cells. The protocol:
as §1, §2
(§3) For survival assays, cells were seeded at a density of 1×10^3 cells per well in 96-well plates. After 3-6 days of culture in indicated concentrations of MMC or post exposure of acetaldehyde, viability was assessed using CellTiterGlo reagent (Promega). […] Colonies were counted after crystal violet staining.

Data set [2] concerns U2OS cells. Nature of the data set: NHEJ reporter assay. The format is cell-based, human. The following applies: template reporter assay. For orientation: In a reporter assay the amount or activity of a reporter protein is the signal.
Data set [3] deals with U2OS cells. Nature of the data set: Immunoblot of DNA-PK phosphorylation. It is filed as cell-based, human. Background: Immunoblotting shows a protein as a band on a membrane.
Another data set has as its system mouse fibroblast cells. Nature of the data set: Immunoblot of Smad2 phosphorylation. The format is cell-based. To be noted: immunoblot of lysates.
In data set [4] the test system is Lin− cells from WT and Fancd2−/− mice. Nature of the data set: Bone marrow Lin− cell growth under TGF-β1. It is filed as cell-based, mouse. The following applies: TGF-β1 1 ng/mL; Ab 10 μg/mL or SD208 10 μM; 5 days. The protocol: (§4) (A) Expression of phospho-Smad2/3 proteins in HSPCs from WT and Fancd2−/− mice as detected by flow cytometric analysis. (B) Quantification of mean fluorescence intensity (MFI) of phospho-Smad2/3 staining by flow cytometric analysis shown in (A) in HSPCs from WT and Fancd2−/− mice. (C) Fancd2−/− HSPCs are more sensitive to TGF-β1 than WT HSPCs. Sorted Lin− cells from WT or Fancd2−/− mice were exposed to TGF-β1. After 5 days in culture, LSK cells were analyzed by flow cytometry and quantified. Data are shown after normalizing to untreated WT group. […] Sorted Lin− cells from WT and Fancd2−/− mice were exposed to TGF-β1 (1 ng/mL) with or without TGF-beta 1,2,3 Ab (10 μg/mL) or SD208 (10 μM), and viable cells were counted after 5 days in culture. Data shown are after normalizing to untreated WT group. Error bars represent mean±s.e.m. (F) Clonogenic assay of WT and Fancd2−/− HSPCs treated with TGF-β1, TGF-beta 1, 2, 3 Ab or SD208. […] Hematopoietic colonies were counted after 7-10 days in culture. […] (I) Representative FACS plots of LSK cells analyzed by flow cytometry for GFP expression after 5 days in vitro culture in stem cell culture medium. […] Luciferase activity was measured. (L) Binding of FANCD2 to SMAD1 promoter (region −2108 to −1950 bp) upon DNA damage as detected by ChIP assay using anti-FANCD2 antibody in corrected GM6914 (+FANCA) but not GM6914 (+Vector) fibroblast cells. […]

The subject of another data set is Fancd2−/− HSPCs. Nature of the data set: Clonogenic assay of HSPCs in methylcellulose. To be noted: TGF-β1 1 ng/mL, Ab 10 μg/mL or SD208 10 μM; colonies after 7-10 days. It is filed as cell-based, mouse. The protocol: as §4
Data set [5] concerns GM6914 cells (FA-A cells). Nature of the data set: Traffic light reporter (TLR) assay of HR and NHEJ. The following applies: GM6914, 10 μM SD208, 72 hrs. The format is cell-based, human. The source says:
FIG. 17. TGF-β pathway Inhibition Increases HR and Decreases NHEJ activities in FA Cells. • (A, B) TGF-β pathway inhibition affects the choice of HR versus NHEJ pathways in repairing individual DNA breakpoints in FA cells. GM6914 cells (FA-A cells) or FANCA corrected GM6914 cells with shControl or shSMAD3 were used to generate traffic light reporter system, and then were infected with GFP-donor template and I-SceI lentivirus to generate DNA breakpoints. Quantification analysis of HR and NHEJ repair events is shown. (B) The ratio of HR to NHEJ activity based on the data in (A). […] Quantification of HR and NHEJ repair events in GM6914 cells exposed to SD-208 for 72 hrs as detected by traffic light reporter assay described in (A). […] HR assay was measured in U2OS cells with DR-GFP reporter after transduction with lentivirus encoding indicated shRNAs. The representative of three independent experiments is presented. […] (F, G) TGF-β pathway inhibition promotes HR activity in FA cells. Representative images (F) and quantification (G) of RAD51 foci in MMC treated GM6914 (FA-A) cells or FANCA corrected GM6914 cells with shRNA-mediated knockdown of SMAD3. […] One hundred cells were scored for RAD51 foci. […]
the presence of 8 μg/mL polybrene. […] Genome engineering events were analyzed by flow cytometry at 72 hours after transduction. NHEJ is represented by mCherry fluorescence, and HR by GFP fluorescence.

The test system of a further data set is GM6914. Nature of the data set: MMC cell viability (CellTiterGlo) to identify IC90. It is filed as cell-based, human. The following applies: GM6914, MMC for 7 days. The procedure:
FIG. 7. Identification of IC90 concentration of MMC on GM6914 and validation of genome wide RNAi screening for MMC resistance. • A) Identification of IC90 concentration of MMC on GM6914. Cells were treated with different doses of MMC for 7 days, and cell viability was measured using CellTiterGlo reagent. […] Cells were transduced with 6 pools of shRNA retrovirus libraries, and selected with puromycin for 48 h. Cells were then treated with MMC for 7 days, and resistant cells were harvested to re-assess their MMC sensitivity by treated with MMC for 3 days. Data shown represented cells transduced by pool #3, 5 and 6. • C) FANCA deficient fibroblast cells (GM6914) were evaluated for MMC sensitivity after shRNA mediated knockdown of SMAD3 and TP53. Survival was measured after 3 days exposure to indicated concentrations of MMC. […] Error bars represent s.e.m. • D) FANCD2 deficient fibroblast cells (PD20) were evaluated for MMC sensitivity after RNAi mediated knockdown of SMAD3 and TP53. Survival was measured after 3 days exposure to indicated concentrations of MMC. […]
as §3

For `Fc1ccc(Cl)cc1-c1nc(Nc2ccncc2)c2nccnc2n1` [SD208], the “FA cells survival in the presence of MMC” value in [1] (FA cell lines with inhibitor) is on record as “improved FA cells survival in the presence of MMC”. For the same compound, in data set [1] (corrected FA cells), the “cytotoxicity of corrected FA cells” value is on record as “do not significantly alter cytotoxicity of corrected FA cells”. Further, the “survival in the presence of acetaldehyde” value with EUFA316 is reported as “significantly promoted survival”. For the same compound, the NHEJ activity entry in the data set with U2OS cells [2] was “decreased NHEJ”. Also, the “phosphorylation of DNA-PK” value in the data set on U2OS cells [3] is listed as “blocks phosphorylation of DNA-PK”. In addition, the “phosphorylation of Smad2” value in the data set with mouse fibroblast cells is on record as “reduced phosphorylation of Smad2”. Also, the “inhibitory effect of TGF-β1 on bone marrow Lin− cell growth” value in data set [4] is “rescues inhibitory effect of TGF-β1”. The “clonogenic ability of Fancd2−/− HSPCs” value in the data set with Fancd2−/− HSPCs is given as “markedly enhanced the clonogenic ability”. Moreover, in [5], the “HR activity / HR events” value was “increased HR activity; also recorded: increases HR events” and the NHEJ events result is recorded as “decreases NHEJ events”.

A word on the IC90: it is the concentration at which the effect reaches the 90% level. Turning to `CO[C@@]12[C@H](COC(N)=O)C3=C(C(=O)C(C)=C(N)C3=O)N1C[C@@H]1N[C@@H]12` [MMC, mitomycin C], the IC90 in the data set with GM6914 was 19 nM.
